{"source": "patent US20140086977A1", "about": "“TIGHT JUNCTIONS MODULATORS” (THE UNIVERSITY OF MANCHESTER, priority 2011, published 2014)", "key": {"[1]": {"test_system": "Normal human epidermal keratinocytes (NHEK)", "experiment": "TEER in NHEK treated with plant polyphenols", "format": "cell-based", "conditions": "for Effect on TEER at day four vs untreated control: 100 μM myricetin or Kaempferol, quercetin concentration not stated, Mann Whitney U test", "description": "Normal human epidermal keratinocytes (NHEK) were purchased from Promocell (Heidelberg, Germany) and grown on Thincerts™ in proprietary medium containing 0.06 mM calcium chloride. ‘Thincerts’ are small chambers containing a filter on which the cells are grown. The Thincert™ is housed within a conventional 12 well tissue culture plate. This arrangement allows treatment of the cells from either the basal or apical side.\nWhen the cells were confluent, the medium was replaced with new medium but containing 1.8 mM calcium chloride. This induces tight junction formation in NHEK. In experiments where plant polyphenols were tested, a known volume of the plant polyphenol (dissolved in vehicle at a known concentration) was added to both apical and basal chambers of the Thincert™ at the same time as the medium was replaced. In this experiment the plant polyphenols quercetin, Myricetin and Kaempferol were tested.\nTight junctions form over 4 days and this was monitored by measuring the transepithelial electrical resistance (TEER) using an EVOM (world precision instruments). TEER was measured every 24 hours post addition of the test polyphenols and the TEER of control untreated cell monolayers was compared to that of treated cell monolayers.\nThe methodology set out in Example 6 was repeated, using quercetin at different concentrations. The results are shown in FIG. 8 in which the first bar represents the results for control—untreated cells, the second bar represents the results for cells treated with 100 μM quercetin and the third bar represents the results for cells treated with 10 μM quercetin (see key below). The y-axis represents TEER at 4 days (Ohms.cm^2)."}, "claudin 1": {"test_system": "claudin 1", "experiment": "Claudin 1 protein levels in NHEK by immunoblot", "format": "cell-based, human", "conditions": "for Effect on claudin 1 protein levels: 24-96 hours post treatment, immunoblot", "description": "Normal primary human keratinocytes (NHEK) were grown in proprietary medium containing 0.6 mM calcium chloride. When the cells reached confluence they were placed in medium containing 1.8 mM calcium chloride (calcium switch) and either cis-UCA, irradiated trans-UCA, unirradiated trans-UCA or control medium. Cells were the incubated for 96 hours during which time TJs form. At 24, 48, 72 or 96 hours post treatment, cells were harvested and claudin 1 levels analysed by immunoblot.\nNHEK (growing as described above) were treated with different concentrations of cis-UCA for 48 hours after which claudin 1 levels were examined using immunoblotting.\n(§1) Exposure of human skin to solar simulated ultraviolet radiation (UVR) transiently impairs skin barrier function (SBF) which recovers over a period of 2-14 days. […] Trans-urocanic acid (trans-UCA) is a major epidermal chromophore located in the stratum corneum and exposure of human skin to UVR photoisomerises trans-UCA to cis-UCA. In a previous Affymetrix study, the Cld-1 encoding gene, CLDN1, was listed as one of several markers induced by cis- but not trans-UCA, in normal human epidermal keratinocytes (NHEK) (Kaneko et al, J Immunol 2008, 181, 217-24). We therefore examined UCA isomer-dependent changes in Cld-1 protein expression (assessed by immunoblotting) and TJ function (assessed as transepithelial electrical resistance; TEER) in differentiated NHEK in vitro."}, "[2]": {"test_system": "Normal primary human keratinocytes (NHEK)", "experiment": "Transepithelial electrical resistance (TEER) in NHEK after calcium switch, UCA isomers", "format": "cell-based", "conditions": "for Effect on TEER: differentiated NHEK vs untreated cells", "from_the_text": "Transepithelial electrical resistance (TEER) measurements are used in epithelial biology as a marker of TJ integrity. Electrical resistance is a measure of how easily ions can pass through a particular transport route. The higher the resistance the harder it is for ions to pass. Whilst the TEER of a cell monolayer is a function of both transcellular and paracellular transport routes, the value of TEER is, however, dominated by the contribution from the paracellular route. TEER of monolayers can be measured using an Epithelial Voltmeter (for example EVOM from WPI Ltd). This instrument passes a current across a monolayer of cells and calculates the resistance according to Ohm's law (V=IR, where V is potential difference, I is current and R is resistance). Therefore increased TEER means […] TJ function. Preferably TEER measurements are carried out at room temperature.\nNormal primary human keratinocytes (NHEK) were grown on Thincerts™ in medium containing 0.6 mM calcium until the cells were confluent. TJ formation was the induced by calcium switch and 25 ug/ml cis-UCA was added to the cells which were incubated for 96 hours and the transepithelial electrical resistance (TEER) measured every 24 hours post calcium switch.\nas §1"}, "[3]": {"test_system": "claudins 1 and 4, occludin and ZO-1 mRNA", "experiment": "Real-time PCR of TJ gene message levels in NHEK", "format": "cell-based, human", "conditions": "25 ug/ml, 48 hours, vs non-treated keratinocytes", "description": "Normal primary human keratinocytes (NHEK) were grown in proprietary medium containing 0.6 mM calcium chloride. When the cells reached confluence they were placed in medium containing […] calcium chloride (calcium switch) and 25 ug/ml cis-UCA was added. Cells were incubated for 48 hours and message levels for the TJ genes claudins 1 and 4, occludin and ZO-1 were quantified using real-time PCR using non-treated keratinocytes as a control (FIG. 3)."}}, "note": "“Also recorded” adds a separate entry of the source.", "data": [{"compound": "O=c1c(O)c(-c2ccc(O)cc2)oc2cc(O)cc(O)c12", "note": "[Kaempferol]", "values": [{"measurement": "Time to barrier formation", "setting": "[1]; 100 μM", "result": "reduces"}, {"measurement": "Effect on TEER at day four vs untreated control", "setting": "[1]", "result": "increases"}]}, {"compound": "O=c1c(O)c(-c2cc(O)c(O)c(O)c2)oc2cc(O)cc(O)c12", "note": "[Myricetin]", "values": [{"measurement": "Effect on TEER at day four vs untreated control", "setting": "[1]", "result": "significantly increase"}]}, {"compound": "O=C(O)/C=C\\c1c[nH]cn1", "note": "[cis-UCA, cis-urocanic acid]", "values": [{"measurement": "Effect on claudin 1 protein levels", "setting": "claudin 1", "result": "time dependent increase"}, {"measurement": "Effect on claudin 1 protein levels", "setting": "claudin 1; listed as Cis-UCA", "result": "time and concentration dependent increase"}, {"measurement": "Dose dependence of claudin 1 protein levels", "setting": "claudin 1; 48 hours, greatest at 25 ug/ml", "result": "dose dependent increase"}, {"measurement": "Increase in Cld-1 protein", "setting": "claudin 1; maximal 48 h post-treatment with 25 μg/ml, n=4, p=0.02", "result": "~3", "unit": "fold"}, {"measurement": "TEER higher than in untreated cells", "setting": "[2]; 25 ug/ml cis-UCA, up to 96 hours post calcium switch", "result": "approximately 150 ohms.cm^2"}, {"measurement": "Effect on TEER", "setting": "[2]", "result": "higher"}, {"measurement": "TEER higher than in untreated cells", "setting": "[2]; differentiated NHEK, n=6, p=0.004", "result": "~150", "unit": "ohms/cm^2"}, {"measurement": "Levels of mRNA for claudins 1, 4, occludin and ZO-1", "setting": "[3]", "result": "increases"}]}, {"compound": "O=c1c(O)c(-c2ccc(O)c(O)c2)oc2cc(O)cc(O)c12", "note": "[quercetin]", "values": [{"measurement": "Effect on TEER at day four vs untreated control", "setting": "[1]", "result": "significantly increase"}, {"measurement": "Dose dependence of TEER at 4 days", "setting": "[1]; 100 μM vs 10 μM quercetin", "result": "higher quantities of quercetin have a more beneficial effect"}]}, {"compound": "O=C(O)/C=C/c1cnc[nH]1", "note": "[trans-UCA, trans-urocanic acid, reference compound]", "values": [{"measurement": "Effect on claudin 1 protein levels", "setting": "claudin 1", "result": "no effect"}, {"measurement": "Effect on claudin 1 protein levels", "setting": "claudin 1; listed as unirradiated trans-UCA", "result": "does not; also recorded: no effect"}, {"measurement": "Effect on TEER", "setting": "[2]", "result": "no effect"}]}]}
